Values of other authors, collected in patent publication US20210113664A1, “IMPLANTS FOR RELEASE OF LIPOPHILIC OR AMPHIPHILIC PHARMACEUTICAL SUBSTANCES” (Titan Pharmaceuticals, Inc., priority 2018, published 2021).

Conditions: values as reported by PubChem

log Poct | SMILES
about 4.8 | CC#CCC(C)[C@H](O)/C=C/[C@@H]1[C@H]2C/C(=C/CCCC(=O)O)C[C@H]2C[C@H]1O (some centres unmarked) [iloprost]
about 4 | N[C@@H](Cc1cc(I)c(Oc2cc(I)c(O)c(I)c2)c(I)c1)C(=O)O [levothyroxine]
